Read-outs that look alike come from different tables or passages of the source.
Legend:
[1] = tested on: electron transfer system of the sub-mitochondrial particles; details: 10 min
Procedure: FIG. 3A is a graph illustrating the pH values at one-minute intervals when 20 wt % of ethanol, (toxic material) and 20 wt % of sorbitol (non-toxic material) are added to sub-mitochondrial particles and an electron donor to cause reactions.
FIGS. 5A and 5B illustrate an exemplary embodiment of a method of positively detecting toxic materials in which phenolphthalein is used as a pH indicator. FIG. 5A is a graph illustrating pH values at two-minute intervals when 20 wt % of ethanol (toxic material), 2.5 wt % of ethanol (toxic material), and 20 wt % of sorbitol (non-toxic material) were added to sub-mitochondrial particles and an electron donor to cause reactions. FIG. 5B is a graph and showing the final pH value of each reactant after the reaction solutions were allowed to react for 10 minutes according to the reaction described in FIG. 5A.

[2] = tested on: electron transfer system of the sub-mitochondrial particles
Description: NaOH was adequately added to a pH indicator, phenol red, to adjust the pH to 10. […] The reaction resultants obtained by the above process and a phenol red solution were mixed together with the weight ratio of 1:1 to identify the color of the mixture solution.

final pH of the reaction resultant ([1]; 2.5 wt %)	final pH of the reaction resultant ([1]; 20 wt %)	color of the mixture solution (phenol red) [2]	SMILES
8.16	6.43	–	CCO [ethanol]
–	9.17	remain the same	OC[C@@H](O)[C@@H](O)[C@H](O)[C@@H](O)CO [sorbitol]
